In ChEMBL document CHEMBL1201862, “PubChem BioAssay data set” (2004):
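Cells were grown in 96-well plates and exposed to each compound for 48 hours at five concentrations; endpoints were interpolated linearly between bracketing concentrations, or set to the highest concentration if not reached. The concentration for 50% growth inhibition is given as GI50.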 The source made the active and inactive calls. No stated cut-off is given here; in the data, active = GI50 up to about 1.1 µM and inactive = higher.

Experiments:
Assay in all cases: NCI tumour cell line growth inhibition, 48 h
[1] = test system: MDA-MB-435
[2] = test system: SW-620
[3] = test system: HT-29
[4] = test system: CCRF-CEM
[5] = test system: OVCAR-5
[6] = test system: OVCAR-3
[7] = test system: MDA-N
[8] = test system: MDA-MB-231
[9] = test system: UACC-62
[10] = test system: BT-549
[11] = test system: NCI/ADR-RES
[12] = test system: SN12C
[13] = test system: CAKI-1
[14] = test system: UO-31
[15] = test system: A498
[16] = test system: NCI-H23
[17] = test system: NCI-H460
[18] = test system: SNB-19
[19] = test system: DU-145
[20] = test system: SK-MEL-5
[21] = test system: HCT-116
[22] = test system: OVCAR-8
[23] = test system: RXF 393
[24] = test system: OVCAR-4
[25] = test system: Malme-3M
[26] = test system: HCT-15
[27] = test system: SK-MEL-28
[28] = test system: SNB-75
[29] = test system: COLO 205
[30] = test system: UACC-257
[31] = test system: SR
[32] = test system: SF-539
[33] = test system: SF-295
[34] = test system: IGROV-1
[35] = test system: K562
[36] = test system: MCF7
[37] = test system: M14
[38] = test system: U-251
[39] = test system: LOX IMVI
[40] = test system: Hs-578T
[41] = test system: MOLT-4
[42] = test system: HCC 2998
[43] = test system: A549
[44] = test system: HL-60
[45] = test system: SK-MEL-2
[46] = test system: SK-OV-3
[47] = test system: TK-10
[48] = test system: PC-3
[49] = test system: NCI-H226
[50] = test system: SF-268
[51] = test system: T47D
[52] = test system: HOP-62
[53] = test system: EKVX
[54] = test system: KM12
[55] = test system: NCI-H522
[56] = test system: RPMI-8226
[57] = test system: ACHN
[58] = test system: 786-0
[59] = test system: HOP-92

## CC(C)(C)OC(=O)NCC(=O)NC1C/C(=N\O)c2sccc21 (centres undefined)
[1]
  GI50: > 100 µM (inactive)
[2]
  GI50: > 100 µM (inactive)
[3]
  GI50: > 100 µM (inactive)
[4]
  GI50: > 100 µM (inactive)
[5]
  GI50: > 100 µM (inactive)
[6]
  GI50: > 100 µM (inactive)
[7]
  GI50: > 100 µM (inactive)
[8]
  GI50: > 100 µM (inactive)
[9]
  GI50: > 100 µM (inactive)
[10]
  GI50: > 100 µM (inactive)
[11]
  GI50: > 100 µM (inactive)
[12]
  GI50: > 100 µM (inactive)
[13]
  GI50: > 100 µM (inactive)
[14]
  GI50: > 100 µM (inactive)
[15]
  GI50: > 100 µM (inactive)
[16]
  GI50: > 100 µM (inactive)
[17]
  GI50: > 100 µM (inactive)
[18]
  GI50: > 100 µM (inactive)
[19]
  GI50: > 100 µM (inactive)
[20]
  GI50: > 100 µM (inactive)
[21]
  GI50: > 100 µM (inactive)
[22]
  GI50: > 100 µM (inactive)
[23]
  GI50: > 100 µM (inactive)
[24]
  GI50: > 100 µM (inactive)
[25]
  GI50: > 100 µM (inactive)
[26]
  GI50: > 100 µM
[27]
  GI50: > 100 µM (inactive)
[28]
  GI50: > 100 µM (inactive)
[29]
  GI50: > 100 µM (inactive)
[30]
  GI50: > 100 µM (inactive)
[31]
  GI50: > 100 µM (inactive)
[32]
  GI50: > 100 µM (inactive)
[33]
  GI50: > 100 µM (inactive)
[34]
  GI50: > 100 µM (inactive)
[35]
  GI50: > 100 µM (inactive)
[36]
  GI50: > 100 µM (inactive)
[37]
  GI50: > 100 µM (inactive)
[38]
  GI50: > 100 µM (inactive)
[39]
  GI50: > 100 µM (inactive)
[40]
  GI50: > 100 µM (inactive)
[41]
  GI50: 0.621 µM (active)
[42]
  GI50: > 100 µM (inactive)
[43]
  GI50: > 100 µM (inactive)
[44]
  GI50: > 100 µM (inactive)
[45]
  GI50: > 100 µM (inactive)
[46]
  GI50: > 100 µM (inactive)
[47]
  GI50: > 100 µM (inactive)
[48]
  GI50: > 100 µM (inactive)
[49]
  GI50: > 100 µM (inactive)
[50]
  GI50: > 100 µM (inactive)
[51]
  GI50: > 100 µM (inactive)
[52]
  GI50: > 100 µM (inactive)
[53]
  GI50: > 100 µM (inactive)

## S=C1c2ccc(Cl)cc2-n2cnnc2C2CSCN12 (centres undefined)
[1]
  GI50: 95.1 µM (inactive)
[2]
  GI50: > 100 µM (inactive)
[54]
  GI50: > 100 µM (inactive)
[3]
  GI50: > 100 µM (inactive)
[4]
  GI50: > 100 µM (inactive)
[5]
  GI50: > 100 µM (inactive)
[6]
  GI50: > 100 µM (inactive)
[7]
  GI50: 63.1 µM (inactive)
[8]
  GI50: > 100 µM (inactive)
[9]
  GI50: > 100 µM (inactive)
[10]
  GI50: > 100 µM (inactive)
[11]
  GI50: > 100 µM (inactive)
[12]
  GI50: > 100 µM (inactive)
[13]
  GI50: > 100 µM (inactive)
[14]
  GI50: > 100 µM (inactive)
[15]
  GI50: > 100 µM (inactive)
[17]
  GI50: > 100 µM (inactive)
[18]
  GI50: > 100 µM (inactive)
[19]
  GI50: > 100 µM (inactive)
[20]
  GI50: > 100 µM (inactive)
[21]
  GI50: 62.5 µM (inactive)
[22]
  GI50: > 100 µM (inactive)
[23]
  GI50: > 100 µM (inactive)
[24]
  GI50: > 100 µM (inactive)
[25]
  GI50: > 100 µM (inactive)
[26]
  GI50: > 100 µM
[27]
  GI50: > 100 µM (inactive)
[55]
  GI50: > 100 µM (inactive)
[28]
  GI50: > 100 µM (inactive)
[29]
  GI50: > 100 µM (inactive)
[30]
  GI50: > 100 µM (inactive)
[31]
  GI50: 52.4 µM (inactive)
[33]
  GI50: > 100 µM (inactive)
[56]
  GI50: > 100 µM (inactive)
[34]
  GI50: > 100 µM (inactive)
[35]
  GI50: 13.9 µM (inactive)
[57]
  GI50: > 100 µM (inactive)
[36]
  GI50: > 100 µM (inactive)
[37]
  GI50: > 100 µM (inactive)
[38]
  GI50: > 100 µM (inactive)
[39]
  GI50: > 100 µM (inactive)
[40]
  GI50: > 100 µM (inactive)
[41]
  GI50: > 100 µM (inactive)
[58]
  GI50: > 100 µM (inactive)
[42]
  GI50: > 100 µM (inactive)
[43]
  GI50: > 100 µM (inactive)
[45]
  GI50: > 100 µM (inactive)
[46]
  GI50: > 100 µM (inactive)
[47]
  GI50: > 100 µM (inactive)
[48]
  GI50: > 100 µM (inactive)
[49]
  GI50: > 100 µM (inactive)
[50]
  GI50: > 100 µM (inactive)
[51]
  GI50: > 100 µM (inactive)
[52]
  GI50: > 100 µM (inactive)
[53]
  GI50: > 100 µM (inactive)

## Cc1ccc(/C=C2\Sc3scc(-c4ccccc4)[n+]3C2=O)cc1
[1]
  GI50: 9.27 µM (inactive)
[2]
  GI50: 20.6 µM (inactive)
[54]
  GI50: 18.5 µM (inactive)
[3]
  GI50: 24.7 µM (inactive)
[4]
  GI50: 13.6 µM (inactive)
[5]
  GI50: 33.4 µM (inactive)
[6]
  GI50: 31.4 µM (inactive)
[7]
  GI50: 18 µM (inactive)
[8]
  GI50: 17.5 µM (inactive)
[9]
  GI50: 16.7 µM (inactive)
[10]
  GI50: 17.4 µM (inactive)
[11]
  GI50: 19.5 µM (inactive)
[12]
  GI50: 21.4 µM (inactive)
[14]
  GI50: 14.5 µM (inactive)
[16]
  GI50: 17.5 µM (inactive)
[17]
  GI50: 16.8 µM (inactive)
[18]
  GI50: 24.5 µM (inactive)
[59]
  GI50: 15.4 µM (inactive)
[19]
  GI50: 24.7 µM (inactive)
[20]
  GI50: 21.6 µM (inactive)
[21]
  GI50: 21.2 µM (inactive)
[22]
  GI50: 22.4 µM (inactive)
[23]
  GI50: 25.9 µM (inactive)
[24]
  GI50: 29 µM (inactive)
[26]
  GI50: 19.8 µM
[27]
  GI50: 51.5 µM (inactive)
[55]
  GI50: 3.4 µM (inactive)
[28]
  GI50: 10.8 µM (inactive)
[29]
  GI50: 20.7 µM (inactive)
[30]
  GI50: 22.8 µM (inactive)
[31]
  GI50: 5 µM (inactive)
[32]
  GI50: 22.3 µM (inactive)
[33]
  GI50: 24.6 µM (inactive)
[56]
  GI50: 8.28 µM (inactive)
[34]
  GI50: 18 µM (inactive)
[35]
  GI50: 12.3 µM (inactive)
[57]
  GI50: 20.7 µM (inactive)
[36]
  GI50: 37.5 µM (inactive)
[37]
  GI50: 23.8 µM (inactive)
[38]
  GI50: 16.2 µM (inactive)
[39]
  GI50: 20.6 µM (inactive)
[40]
  GI50: 3.38 µM (inactive)
[41]
  GI50: 30.1 µM (inactive)
[58]
  GI50: 22.3 µM (inactive)
[42]
  GI50: 27.7 µM (inactive)
[43]
  GI50: 25.1 µM (inactive)
[44]
  GI50: 2.69 µM (inactive)
[45]
  GI50: 24.1 µM (inactive)
[46]
  GI50: 44.2 µM (inactive)
[47]
  GI50: 19.8 µM (inactive)
[48]
  GI50: 29 µM (inactive)
[49]
  GI50: 37.3 µM (inactive)
[50]
  GI50: 17.9 µM (inactive)
[51]
  GI50: 48.3 µM (inactive)
[52]
  GI50: 26.2 µM (inactive)
[53]
  GI50: 19.3 µM (inactive)
